Measurements taken from PubChem BioAssay AID1845216 (Molecular Pharmacology Branch, DTP, NCI, 2023).

Tested on: SW 982 tumor spheroid viability
Assay: Anticancer human tumor SW 982 cell line growth inhibition;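 also: spheroids exposed to compound for 7 days before readout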
Details: spheroids with HUVEC and MSC; for IC50: curve of first compound; for viability, T/C: stronger effect = lower value
Procedure, shortened: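 Single agents and combinations were tested on spheroids built from tumor cells plus HUVEC and hMSC, at half-log dilutions starting at or near clinical Cmax, else 10 microM; final DMSO 0.25% (v/v).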

COc1cc(C)[nH]c(=O)c1CN1CCc2c(Cl)cc(C(OC)C3COC3)c(Cl)c2C1=O (stereo not given) + Cn1nnc2c(C(N)=O)ncn2c1=O
IC50 (second compound 1 µM): > 10 µM | IC50 (second compound 3.16 µM): > 10 µM | IC50 (second compound 10 µM): > 10 µM | IC50 (second compound 31.6 µM): > 10 µM | IC50 (second compound 100 µM): > 10 µM | viability, T/C (second compound 1 µM, first compound 0.0316 µM): 101% | viability, T/C (second compound 1 µM, first compound 0.1 µM): 103% | viability, T/C (second compound 1 µM, first compound 0.316 µM): 103% | viability, T/C (second compound 1 µM, first compound 1 µM): 113% | viability, T/C (second compound 1 µM, first compound 3.16 µM): 101% | viability, T/C (second compound 1 µM, first compound 10 µM): 99.7% | viability, T/C (second compound 3.16 µM, first compound 0.0316 µM): 94.3% | viability, T/C (second compound 3.16 µM, first compound 0.1 µM): 92.4% | viability, T/C (second compound 3.16 µM, first compound 0.316 µM): 96% | viability, T/C (second compound 3.16 µM, first compound 1 µM): 102% | viability, T/C (second compound 3.16 µM, first compound 3.16 µM): 100% | viability, T/C (second compound 3.16 µM, first compound 10 µM): 93.1% | viability, T/C (second compound 10 µM, first compound 0.0316 µM): 81.8% | viability, T/C (second compound 10 µM, first compound 0.1 µM): 83.5% | viability, T/C (second compound 10 µM, first compound 0.316 µM): 86.2% | viability, T/C (second compound 10 µM, first compound 1 µM): 88.3% | viability, T/C (second compound 10 µM, first compound 3.16 µM): 85.8% | viability, T/C (second compound 10 µM, first compound 10 µM): 78.3% | viability, T/C (second compound 31.6 µM, first compound 0.0316 µM): 71.1% | viability, T/C (second compound 31.6 µM, first compound 0.1 µM): 71.7% | viability, T/C (second compound 31.6 µM, first compound 0.316 µM): 70.4% | viability, T/C (second compound 31.6 µM, first compound 1 µM): 78.8% | viability, T/C (second compound 31.6 µM, first compound 3.16 µM): 70% | viability, T/C (second compound 31.6 µM, first compound 10 µM): 69.1% | viability, T/C (second compound 100 µM, first compound 0.0316 µM): 58.6% | viability, T/C (second compound 100 µM, first compound 0.1 µM): 62.3% | viability, T/C (second compound 100 µM, first compound 0.316 µM): 65% | viability, T/C (second compound 100 µM, first compound 1 µM): 64.3% | viability, T/C (second compound 100 µM, first compound 3.16 µM): 64.6% | viability, T/C (second compound 100 µM, first compound 10 µM): 61.9%

O=C(c1cc(Cc2n[nH]c(=O)c3ccccc23)ccc1F)N1CCN(C(=O)C2CC2)CC1 + CC[C@@]1(O)C(=O)OCc2c1cc1n(c2=O)Cc2cc3c(CN(C)C)c(O)ccc3nc2-1
IC50 (second compound 0.003 µM): 23.7 µM | IC50 (second compound 0.00949 µM): 22.5 µM | IC50 (second compound 0.03 µM): 17.7 µM | IC50 (second compound 0.0949 µM): 10.5 µM | IC50 (second compound 0.3 µM): < 0.0949 µM | viability, T/C (second compound 0.003 µM, first compound 0.0949 µM): 83.3% | viability, T/C (second compound 0.003 µM, first compound 0.3 µM): 80.5% | viability, T/C (second compound 0.003 µM, first compound 0.949 µM): 84.1% | viability, T/C (second compound 0.003 µM, first compound 3 µM): 78.9% | viability, T/C (second compound 0.003 µM, first compound 9.49 µM): 66.6% | viability, T/C (second compound 0.003 µM, first compound 30 µM): 45.7% | viability, T/C (second compound 0.00949 µM, first compound 0.0949 µM): 85.6% | viability, T/C (second compound 0.00949 µM, first compound 0.3 µM): 83.8% | viability, T/C (second compound 0.00949 µM, first compound 0.949 µM): 87.1% | viability, T/C (second compound 0.00949 µM, first compound 3 µM): 78% | viability, T/C (second compound 0.00949 µM, first compound 9.49 µM): 73.7% | viability, T/C (second compound 0.00949 µM, first compound 30 µM): 42.2% | viability, T/C (second compound 0.03 µM, first compound 0.0949 µM): 72.6% | viability, T/C (second compound 0.03 µM, first compound 0.3 µM): 76.3% | viability, T/C (second compound 0.03 µM, first compound 0.949 µM): 81.8% | viability, T/C (second compound 0.03 µM, first compound 3 µM): 75.8% | viability, T/C (second compound 0.03 µM, first compound 9.49 µM): 60.5% | viability, T/C (second compound 0.03 µM, first compound 30 µM): 41.1% | viability, T/C (second compound 0.0949 µM, first compound 0.0949 µM): 63.6% | viability, T/C (second compound 0.0949 µM, first compound 0.3 µM): 66.3% | viability, T/C (second compound 0.0949 µM, first compound 0.949 µM): 59.7% | viability, T/C (second compound 0.0949 µM, first compound 3 µM): 60.2% | viability, T/C (second compound 0.0949 µM, first compound 9.49 µM): 49.6% | viability, T/C (second compound 0.0949 µM, first compound 30 µM): 39.4% | viability, T/C (second compound 0.3 µM, first compound 0.0949 µM): 36.2% | viability, T/C (second compound 0.3 µM, first compound 0.3 µM): 43.4% | viability, T/C (second compound 0.3 µM, first compound 0.949 µM): 43.3% | viability, T/C (second compound 0.3 µM, first compound 3 µM): 39.6% | viability, T/C (second compound 0.3 µM, first compound 9.49 µM): 31.1% | viability, T/C (second compound 0.3 µM, first compound 30 µM): 17.6%
